Measurements taken from US20250296916A1, “BICYCLIC PIPERAZINONES AND THERAPEUTIC USES THEREOF” (Cytokinetics, Inc., priority 2022, published 2025).

The compounds below were run on rabbit skeletal myofibrils (approximately 90% fast fibers) (assay: Activation of fast skeletal myofibrils (PUMA coupled-enzyme ATPase assay)). Conditions: concentration at which the compound increased the enzymatic activity by 40%; calcium at pCa25; PM12 buffer pH 6.8.
Assay type: biochemical
Method: Preparation of fast skeletal myofibrils: Rabbit skeletal myofibrils were prepared based upon the method of Herrmann et al. (Biochem. 32 (28): 7255-7263 (1993). Myofibrils were prepared from rabbit psoas muscle purchased from Pel-Freez Biologicals (Arkansas) within 2 days of ordering, stored on ice. Minced muscle was homogenized in 10 volumes of ice-cold “standard” buffer (50 mM Tris, pH 7.4, 0.1 M KOAc, 5 mM KCl, 2 mM dithiothreitol (DTT), 0.2 mM phenylmethylsulfonyl fluoride (PMSF), 10 μM leupeptin, 5 μM pepstatin, and 0.5 mM sodium azide) containing 5 mM ethylenediaminetetraacetic acid (EDTA) and 0.5% Triton X-100 using an Omni-Macro homogenizer. Myofibrils were recovered by low speed centrifugation (3000 rpm for 10 minutes) and washed 2 times in the Triton X-100 containing buffer to ensure removal of cellular membrane. Following the Triton washes, myofibrils were washed 3 times in “standard” buffer containing 2 mM magnesium acetate. A final wash in assay buffer (12 mM piperazine-1,4-bis(2-ethanesulfonic acid) (PIPES), pH 6.8, 60 mM KCl, 1 mM DTT) was performed and brought to 10% sucrose for flash freezing in liquid nitrogen and storage at −80° C.
Activation of Fast Skeletal Myofibrils: Fast fiber activators were identified by measuring the enzymatic activity of muscle myofibril preparations using the proprietary PUMA (trademark) (see, e.g., U.S. Pat. Nos. 6,410,254, 6,743,599, 7,202,051, and 7,378,254) assay system. Myofibril preparations consisted of rabbit skeletal muscle (approximately 90% fast fibers) that had been mechanically homogenized and washed with a detergent (Triton X-100) to remove cellular membranes. This preparation retained all of the sarcomeric components in a native conformation and the enzymatic activity was still regulated by calcium. Compounds were tested using a myofibril suspension and a level of calcium sufficient to increase enzymatic activity of the myofibrils to 25% of their maximal rate (termed pCa25). Enzymatic activity was tracked via a pyruvate kinase and lactate dehydrogenase-coupled enzyme system. This assay regenerates myosin-produced ADP into ATP by oxidizing NADH, producing an absorbance change at 340 nm. The buffering system was 12 mM PIPES, 2 mM MgCl2, 1 mM DTT at pH 6.8 (PM12 buffer). […] In Table 3, “Example Compound” refers to the compound labeled with the same number in Table 2.

SMILES	AC1.4
CC[C@H](C)[C@H]1C(=O)Nc2ccccc2N1C(=O)N[C@H]1C[C@@H](O)C1 [Compound 133, (S)-2-((S)-sec-butyl)-N-((1s,3R)-3-hydroxycyclobutyl)-3-oxo-3,4-dihydroquinoxaline-1(2H)-carboxamide]	1.68 µM
CCC[C@H]1C(=O)Nc2ccccc2N1C(=O)c1cnc2[nH]ncc2c1 [Compound 73, (S)-3-propyl-4-(1H-pyrazolo[3,4-b]pyridine-5-carbonyl)-3,4-dihydroquinoxalin-2(1H)-one]	0.11 µM
CC[C@H](C)[C@H]1C(=O)Nc2ccccc2N1C(=O)N1CC[C@H](CO)C1 [Compound 107, (S)-3-((S)-sec-butyl)-4-((S)-3-(hydroxymethyl)pyrrolidine-1-carbonyl)-3,4-dihydroquinoxalin-2(1H)-one]	0.44 µM
CCC[C@H]1C(=O)Nc2ccccc2N1C(=O)c1ccc(N2CCCCCC2)nc1 [Compound 35, (S)-4-(6-(azepan-1-yl)nicotinoyl)-3-propyl-3,4-dihydroquinoxalin-2(1H)-one]	1.32 µM
CCC[C@H]1C(=O)Nc2ccccc2N1C(=O)Nc1ccccc1F [Compound 56, (S)-N-(2-fluorophenyl)-3-oxo-2-propyl-3,4-dihydroquinoxaline-1(2H)-carboxamide]	0.42 µM
CCC[C@H]1C(=O)Nc2ccccc2N1C(=O)Nc1cccnc1 [Compound 47, (S)-3-oxo-2-propyl-N-(pyridin-3-yl)-3,4-dihydroquinoxaline-1(2H)-carboxamide]	1.51 µM
CCC[C@H]1C(=O)Nc2ccccc2N1C(=O)c1cccc(F)c1 [Compound 17, (S)-4-(3-fluorobenzoyl)-3-propyl-3,4-dihydroquinoxalin-2(1H)-one]	0.17 µM
CCC[C@H]1C(=O)Nc2ccccc2N1C(=O)c1ccc(OC(F)F)nc1 [Compound 24, (S)-4-(6-(difluoromethoxy)nicotinoyl)-3-propyl-3,4-dihydroquinoxalin-2(1H)-one]	0.4 µM
CC[C@H](C)[C@H]1C(=O)Nc2ccccc2N1C(=O)NC1CCN(CCO)CC1 [Compound 130, (S)-2-((S)-sec-butyl)-N-(1-(2-hydroxyethyl)piperidin-4-yl)-3-oxo-3,4-dihydroquinoxaline-1(2H)-carboxamide]	2.13 µM
CC[C@H](C)[C@H]1C(=O)Nc2ccccc2N1C(=O)N1CCC[C@H](O)C1 [Compound 114, (S)-3-((S)-sec-butyl)-4-((S)-3-hydroxypiperidine-1-carbonyl)-3,4-dihydroquinoxalin-2(1H)-one]	1.69 µM
CCC[C@H]1C(=O)Nc2ccccc2N1C(=O)Nc1ccncc1 [Compound 48, (S)-3-oxo-2-propyl-N-(pyridin-4-yl)-3,4-dihydroquinoxaline-1(2H)-carboxamide]	1.08 µM
CCC[C@H]1C(=O)Nc2ccccc2N1C(=O)c1cnn(C2CC2)c1 [Compound 76, (S)-4-(1-cyclopropyl-1H-pyrazole-4-carbonyl)-3-propyl-3,4-dihydroquinoxalin-2(1H)-one]	0.47 µM
CCC[C@H]1C(=O)Nc2ccccc2N1C(=O)N[C@@H](C)c1ccccc1 [Compound 50, (S)-3-oxo-N-((S)-1-phenylethyl)-2-propyl-3,4-dihydroquinoxaline-1(2H)-carboxamide]	2.36 µM
CCC[C@H]1C(=O)Nc2ccccc2N1C(=O)c1ccc(N2CCC(F)(F)C2)nc1 [Compound 43, (S)-4-(6-(3,3-difluoropyrrolidin-1-yl)nicotinoyl)-3-propyl-3,4-dihydroquinoxalin-2(1H)-one]	2.78 µM
CCC[C@H]1C(=O)Nc2ccccc2N1C(=O)c1cnn(CCO)c1 [Compound 67, (S)-4-(1-(2-hydroxyethyl)-1H-pyrazole-4-carbonyl)-3-propyl-3,4-dihydroquinoxalin-2(1H)-one]	1.31 µM
CCC[C@H]1C(=O)Nc2ccccc2N1C(=O)c1ccc(NCC(F)(F)F)nc1 [Compound 34, (S)-3-propyl-4-(6-((2,2,2-trifluoroethyl)amino)nicotinoyl)-3,4-dihydroquinoxalin-2(1H)-one]	2.59 µM
CCC[C@H]1C(=O)Nc2ccccc2N1C(=O)c1cn[nH]c1 [Compound 71, (S)-3-propyl-4-(1H-pyrazole-4-carbonyl)-3,4-dihydroquinoxalin-2(1H)-one]	0.54 µM
CCCC1C(=O)Nc2ccccc2N1C(=O)c1ccc(Cl)nc1 (centres unmarked) [Compound 1, 4-(6-chloronicotinoyl)-3-propyl-3,4-dihydroquinoxalin-2(1H)-one]	0.45 µM
CCC[C@H]1C(=O)Nc2ccccc2N1C(=O)c1ccc(N)nc1 [Compound 27, (S)-4-(6-aminonicotinoyl)-3-propyl-3,4-dihydroquinoxalin-2(1H)-one]	0.76 µM
CCC[C@H]1C(=O)Nc2ccccc2N1C(=O)c1cccs1 [Compound 15, (S)-3-propyl-4-(thiophene-2-carbonyl)-3,4-dihydroquinoxalin-2(1H)-one]	0.17 µM
CCC[C@H]1C(=O)Nc2ccccc2N1C(=O)NCc1ccccc1 [Compound 49, (S)-N-benzyl-3-oxo-2-propyl-3,4-dihydroquinoxaline-1(2H)-carboxamide]	2.08 µM
CCC[C@H]1C(=O)Nc2ccccc2N1C(=O)c1ccc(OC(F)(F)F)nc1 [Compound 25, (S)-3-propyl-4-(6-(trifluoromethoxy)nicotinoyl)-3,4-dihydroquinoxalin-2(1H)-one]	2.34 µM

Further lines, results first:

AC1.4	SMILES
1.31 µM	CC[C@H](C)[C@H]1C(=O)Nc2ccccc2N1C(=O)N1CCCC1 [Compound 104, (S)-3-((S)-sec-butyl)-4-(pyrrolidine-1-carbonyl)-3,4-dihydroquinoxalin-2(1H)-one]
0.26 µM	CC(C)[C@H]1C(=O)Nc2ccccc2N1C(=O)c1ccc(N)nc1 [Compound 82, (S)-4-(6-aminonicotinoyl)-3-isopropyl-3,4-dihydroquinoxalin-2(1H)-one]
1.42 µM	CCC[C@H]1C(=O)Nc2ccccc2N1C(=O)c1ccc(N(C)C)nc1 [Compound 28, (S)-4-(6-(dimethylamino)nicotinoyl)-3-propyl-3,4-dihydroquinoxalin-2(1H)-one]
0.08 µM	CC(C)[C@H]1C(=O)Nc2ccccc2N1C(=O)c1cnn(C)c1 [Compound 77, (S)-3-isopropyl-4-(1-methyl-1H-pyrazole-4-carbonyl)-3,4-dihydroquinoxalin-2(1H)-one]
0.15 µM	CC(C)[C@H]1C(=O)Nc2ccccc2N1C(=O)c1ccc(=O)[nH]c1 [Compound 85, (S)-3-isopropyl-4-(6-oxo-1,6-dihydropyridine-3-carbonyl)-3,4-dihydroquinoxalin-2(1H)-one]
1.03 µM	CC[C@H](C)[C@H]1C(=O)Nc2cccnc2N1C(=O)c1ccc(=O)n(C)c1 [Compound 92, (S)-3-((S)-sec-Butyl)-4-(1-methyl-6-oxo-1,6-dihydropyridine-3-carbonyl)-3,4-dihydropyrido[2,3-b]pyrazin-2(1H)-one]
2.01 µM	CC[C@H](C)[C@H]1C(=O)Nc2ccc(F)cc2N1C(N)=O [Compound 113, (S)-2-((S)-sec-butyl)-7-fluoro-3-oxo-3,4-dihydroquinoxaline-1(2H)-carboxamide]
0.16 µM	CC(C)C[C@H]1C(=O)Nc2ccccc2N1C(=O)c1cnn(C)c1 [Compound 68, (S)-3-isobutyl-4-(1-methyl-1H-pyrazole-4-carbonyl)-3,4-dihydroquinoxalin-2(1H)-one]
1.51 µM	CC[C@H](C)[C@H]1C(=O)Nc2ccccc2N1C(=O)CO [Compound 109, (S)-3-((S)-sec-butyl)-4-(2-hydroxyacetyl)-3,4-dihydroquinoxalin-2(1H)-one]
1.25 µM	CC[C@H](C)[C@H]1C(=O)Nc2ccccc2N1C(=O)OC [Compound 125, methyl (S)-2-((S)-sec-butyl)-3-oxo-3,4-dihydroquinoxaline-1(2H)-carboxylate]
0.88 µM	CC[C@H](C)[C@H]1C(=O)Nc2ccccc2N1C(=O)c1cc[nH]n1 [Compound 79, (S)-3-((S)-sec-butyl)-4-(1H-pyrazole-3-carbonyl)-3,4-dihydroquinoxalin-2(1H)-one]
1.01 µM	CC[C@H](C)[C@H]1C(=O)Nc2ccccc2N1C(=O)N1CC(F)C1 [Compound 112, (S)-3-((S)-sec-butyl)-4-(3-fluoroazetidine-1-carbonyl)-3,4-dihydroquinoxalin-2(1H)-one]
0.13 µM	CC[C@H](C)[C@H]1C(=O)Nc2cnccc2N1C(=O)c1cccc(C)c1 [Compound 98, (S)-2-((S)-sec-butyl)-1-(3-methylbenzoyl)-1,4-dihydropyrido[3,4-b]pyrazin-3(2H)-one]
